According to the supplement of paper PMC10733146:

Key:
Test in all cases: viability relative to DMSO control (fraction); higher = less drug effect (more viable cells)
Settings in all cases: 48 h
[1] = test system: primary AML patient cells (S081)
In short: (§1)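 Viability was measured as CellTiter-Glo luminescence relative to the median of 16 inner DMSO wells. Primary mononuclear tumour cells, fresh or cryopreserved, were Ficoll-isolated from blood or bone marrow or taken from processed lymph node. They were seeded at 4 × 10^4 cells per well into 384-well plates holding pre-plated compounds at five concentrations, one well each, and kept in RPMI-1640 with penicillin/streptomycin, L-glutamine and human serum at 37 °C and 5% CO2 for 48 h.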

[2] = test system: primary FL patient cells (S022)
In short: as §1

[3] = test system: primary ALL patient cells (S048)
In short: as §1

[4] = test system: primary AML patient cells (S011)
In short: as §1

[5] = test system: primary AML patient cells (S017)
In short: as §1

[6] = test system: primary BL patient cells (S005)
In short: as §1

[7] = test system: primary AML patient cells (S006)
In short: as §1

[8] = test system: primary MCL patient cells (S063)
In short: as §1

[9] = test system: primary FL patient cells (S087)
In short: as §1

[10] = test system: primary AML patient cells (S060)
In short: as §1

[11] = test system: primary CLL patient cells (S031)
In short: as §1

[12] = test system: primary AML patient cells (S021)
In short: as §1

[13] = test system: primary AML patient cells (S012)
In short: as §1

[14] = test system: primary CLL patient cells (S043)
In short: as §1

[15] = test system: primary B-PLL patient cells (S016)
In short: as §1

[16] = test system: primary AML patient cells (S085)
In short: as §1

[17] = test system: primary ALL patient cells (S088)
In short: as §1

[18] = test system: primary MCL patient cells (S068)
In short: as §1

[19] = test system: primary AML patient cells (S056)
In short: as §1

[20] = test system: primary MCL patient cells (S053)
In short: as §1

Compound: Cc1cc(Nc2ncc(Cl)c(Nc3ccccc3S(=O)(=O)C(C)C)n2)c(OC(C)C)cc1C1CCNCC1 [Ceritinib]
- viability ([1]; 0.024 µM): 0.963
- viability ([1]; 0.12 µM): 0.957
- viability ([1]; 0.6 µM): 0.967
- viability ([1]; 3 µM): 0.982
- viability ([1]; 15 µM): 0.0181
- viability ([2]; 0.024 µM): 1.01
- viability ([2]; 0.12 µM): 0.948
- viability ([2]; 0.6 µM): 0.846
- viability ([2]; 3 µM): 0.555
- viability ([2]; 15 µM): 0.0165
- viability ([3]; 0.024 µM): 0.855
- viability ([3]; 0.12 µM): 0.83
- viability ([3]; 0.6 µM): 0.634
- viability ([3]; 3 µM): 0.505
- viability ([3]; 15 µM): 0.0153
- viability ([4]; 0.024 µM): 0.846
- viability ([4]; 0.12 µM): 0.942
- viability ([4]; 0.6 µM): 0.631
- viability ([4]; 3 µM): 0.182
- viability ([4]; 15 µM): 0.0175
- viability ([5]; 0.024 µM): 0.958
- viability ([5]; 0.12 µM): 0.963
- viability ([5]; 0.6 µM): 0.995
- viability ([5]; 3 µM): 0.773
- viability ([5]; 15 µM): 0.0225
- viability ([6]; 0.024 µM): 1.05
- viability ([6]; 0.12 µM): 0.992
- viability ([6]; 0.6 µM): 0.944
- viability ([6]; 3 µM): 0.669
- viability ([6]; 15 µM): 0.0199
- viability ([7]; 0.024 µM): 0.938
- viability ([7]; 0.12 µM): 0.924
- viability ([7]; 0.6 µM): 0.773
- viability ([7]; 3 µM): 0.53
- viability ([7]; 15 µM): 0.0233
- viability ([8]; 0.024 µM): 0.967
- viability ([8]; 0.12 µM): 0.946
- viability ([8]; 0.6 µM): 0.957
- viability ([8]; 3 µM): 0.892
- viability ([8]; 15 µM): 0.0187
- viability ([9]; 0.024 µM): 0.968
- viability ([9]; 0.12 µM): 0.981
- viability ([9]; 0.6 µM): 0.883
- viability ([9]; 3 µM): 0.734
- viability ([9]; 15 µM): 0.0188
- viability ([10]; 0.024 µM): 1
- viability ([10]; 0.12 µM): 0.981
- viability ([10]; 0.6 µM): 1.03
- viability ([10]; 3 µM): 0.947
- viability ([10]; 15 µM): 0.0203
- viability ([11]; 0.024 µM): 1
- viability ([11]; 0.12 µM): 0.899
- viability ([11]; 0.6 µM): 0.838
- viability ([11]; 3 µM): 0.628
- viability ([11]; 15 µM): 0.018
- viability ([12]; 0.024 µM): 1
- viability ([12]; 0.12 µM): 0.934
- viability ([12]; 0.6 µM): 0.833
- viability ([12]; 3 µM): 0.572
- viability ([12]; 15 µM): 0.03
- viability ([13]; 0.024 µM): 1.05
- viability ([13]; 0.12 µM): 1.03
- viability ([13]; 0.6 µM): 1.06
- viability ([13]; 3 µM): 1.01
- viability ([13]; 15 µM): 0.0296
- viability ([14]; 0.024 µM): 1.05
- viability ([14]; 0.12 µM): 0.943
- viability ([14]; 0.6 µM): 0.928
- viability ([14]; 3 µM): 0.684
- viability ([14]; 15 µM): 0.0198
- viability ([15]; 0.024 µM): 0.945
- viability ([15]; 0.12 µM): 0.832
- viability ([15]; 0.6 µM): 0.743
- viability ([15]; 3 µM): 0.555
- viability ([15]; 15 µM): 0.0198
- viability ([16]; 0.024 µM): 1.02
- viability ([16]; 0.12 µM): 0.875
- viability ([16]; 0.6 µM): 0.62
- viability ([16]; 3 µM): 0.49
- viability ([16]; 15 µM): 0.0171
- viability ([17]; 0.024 µM): 0.923
- viability ([17]; 0.12 µM): 0.788
- viability ([17]; 0.6 µM): 0.558
- viability ([17]; 3 µM): 0.35
- viability ([17]; 15 µM): 0.0155
- viability ([18]; 0.024 µM): 0.94
- viability ([18]; 0.12 µM): 0.84
- viability ([18]; 0.6 µM): 0.88
- viability ([18]; 3 µM): 1.02
- viability ([18]; 15 µM): 0.0227
- viability ([19]; 0.024 µM): 0.954
- viability ([19]; 0.12 µM): 1.41
- viability ([19]; 0.6 µM): 0.654
- viability ([19]; 3 µM): 0.375
- viability ([19]; 15 µM): 0.0154
- viability ([20]; 0.024 µM): 0.986
- viability ([20]; 0.12 µM): 1.01
- viability ([20]; 0.6 µM): 1
- viability ([20]; 3 µM): 0.832
- viability ([20]; 15 µM): 0.0213

Compound: Nc1nc(Cl)nc2c1ncn2[C@@H]1O[C@H](CO)[C@@H](O)[C@@H]1F [Clofarabine]
- viability ([1]; 0.024 µM): 1.08
- viability ([1]; 0.12 µM): 1.07
- viability ([1]; 0.6 µM): 0.861
- viability ([1]; 3 µM): 0.684
- viability ([1]; 15 µM): 0.415
- viability ([2]; 0.024 µM): 0.817
- viability ([2]; 0.12 µM): 0.643
- viability ([2]; 0.6 µM): 0.457
- viability ([2]; 3 µM): 0.306
- viability ([2]; 15 µM): 0.256
- viability ([3]; 0.024 µM): 0.345
- viability ([3]; 0.12 µM): 0.0686
- viability ([3]; 0.6 µM): 0.0335
- viability ([3]; 3 µM): 0.0271
- viability ([3]; 15 µM): 0.0269
- viability ([4]; 0.024 µM): 0.762
- viability ([4]; 0.12 µM): 0.535
- viability ([4]; 0.6 µM): 0.299
- viability ([4]; 3 µM): 0.17
- viability ([4]; 15 µM): 0.0898
- viability ([5]; 0.024 µM): 1.06
- viability ([5]; 0.12 µM): 0.91
- viability ([5]; 0.6 µM): 0.538
- viability ([5]; 3 µM): 0.3
- viability ([5]; 15 µM): 0.149
- viability ([6]; 0.024 µM): 0.929
- viability ([6]; 0.12 µM): 0.925
- viability ([6]; 0.6 µM): 0.761
- viability ([6]; 3 µM): 0.882
- viability ([6]; 15 µM): 0.735
- viability ([7]; 0.024 µM): 0.759
- viability ([7]; 0.12 µM): 0.381
- viability ([7]; 0.6 µM): 0.351
- viability ([7]; 3 µM): 0.461
- viability ([7]; 15 µM): 0.489
- viability ([8]; 0.024 µM): 0.912
- viability ([8]; 0.12 µM): 0.736
- viability ([8]; 0.6 µM): 0.245
- viability ([8]; 3 µM): 0.0814
- viability ([8]; 15 µM): 0.0383
- viability ([9]; 0.024 µM): 0.823
- viability ([9]; 0.12 µM): 0.673
- viability ([9]; 0.6 µM): 0.587
- viability ([9]; 3 µM): 0.536
- viability ([9]; 15 µM): 0.547
- viability ([10]; 0.024 µM): 1.09
- viability ([10]; 0.12 µM): 1.06
- viability ([10]; 0.6 µM): 0.723
- viability ([10]; 3 µM): 0.402
- viability ([10]; 15 µM): 0.126
- viability ([11]; 0.024 µM): 0.424
- viability ([11]; 0.12 µM): 0.0924
- viability ([11]; 0.6 µM): 0.0411
- viability ([11]; 3 µM): 0.0349
- viability ([11]; 15 µM): 0.0384
- viability ([12]; 0.024 µM): 0.755
- viability ([12]; 0.12 µM): 0.425
- viability ([12]; 0.6 µM): 0.286
- viability ([12]; 3 µM): 0.21
- viability ([12]; 15 µM): 0.201
- viability ([13]; 0.024 µM): 0.956
- viability ([13]; 0.12 µM): 0.826
- viability ([13]; 0.6 µM): 0.459
- viability ([13]; 3 µM): 0.276
- viability ([13]; 15 µM): 0.136
- viability ([14]; 0.024 µM): 1
- viability ([14]; 0.12 µM): 0.888
- viability ([14]; 0.6 µM): 0.457
- viability ([14]; 3 µM): 0.284
- viability ([14]; 15 µM): 0.157
- viability ([15]; 0.024 µM): 0.711
- viability ([15]; 0.12 µM): 0.332
- viability ([15]; 0.6 µM): 0.0601
- viability ([15]; 3 µM): 0.034
- viability ([15]; 15 µM): 0.0319
- viability ([16]; 0.024 µM): 0.897
- viability ([16]; 0.12 µM): 0.41
- viability ([16]; 0.6 µM): 0.286
- viability ([16]; 3 µM): 0.468
- viability ([16]; 15 µM): 0.555
- viability ([17]; 0.024 µM): 0.569
- viability ([17]; 0.12 µM): 0.254
- viability ([17]; 0.6 µM): 0.203
- viability ([17]; 3 µM): 0.173
- viability ([17]; 15 µM): 0.109
- viability ([18]; 0.024 µM): 0.522
- viability ([18]; 0.12 µM): 0.301
- viability ([18]; 0.6 µM): 0.203
- viability ([18]; 3 µM): 0.156
- viability ([18]; 15 µM): 0.128
- viability ([19]; 0.024 µM): 1
- viability ([19]; 0.12 µM): 0.413
- viability ([19]; 0.6 µM): 0.288
- viability ([19]; 3 µM): 0.277
- viability ([19]; 15 µM): 0.303
- viability ([20]; 0.024 µM): 0.492
- viability ([20]; 0.12 µM): 0.356
- viability ([20]; 0.6 µM): 0.266
- viability ([20]; 3 µM): 0.255
- viability ([20]; 15 µM): 0.211
